Counter-ions that a name gives are not always drawn.
What was measured:
[1] = tested on: HCT-116 cells; assay: Cellular imaging (cell morphology); format: cell-based, human; conditions: HCT-116, 1.25-10 mM, 24, 48, 72 hours
Protocol: To assess the morphological changes of the cells following treatment, HT-29 and HCT-116 cells were cultured in 12-well plates at a concentration of […] cells per well. After 24 hours of seeding, the cells were treated with IS at concentrations of 1.25 mM, 5 mM, and 10 mM. The cells were exposed to IS in triplicate for three different incubation periods: 24 hours, 48 hours, and 72 hours. After the respective incubation periods, the cells were examined using a Nikon microscope equipped with a 20× objective. Images were captured using a digital camera and the NIS-Elements 3.0 software.

[2] = tested on: human adenocarcinoma cells; assay: Oxidative stress by DHE staining; format: cell-based; conditions: DHE staining after 48 hours of treatment
Protocol: In the in vitro study, cells were exposed to various doses of indoxyl sulfate ranging from 0.038 mM to 10 mM for three different incubation periods (24 hours, 48 hours, and 72 hours). A decrease in cell proliferation efficiency was observed after 48 hours of treatment, with the most significant effects observed at concentrations of 5 mM and 10 mM of indoxyl sulfate. […] Decrease in cellular ATP content indicates the diminished cellular metabolic activity and may be linked with cell death. Considering these findings. the apoptotic effect of indoxyl sulfate was examined. […] Another study on the osteoblast cell line MC3T3-E1 also confirmed that IS acts as a bone toxin by inducing cell apoptosis and inhibiting differentiation. […] To account for this study. cells were also assessed for oxidative stress in this invention by staining them with […] (DHE) after 48 hours of treatment. […] The potential for IS to cause DNA damage was also investigated.

[3] = tested on: HCT-116 cells; assay: Membrane integrity by LDH assay; format: cell-based, human; conditions: 48 hours, 0.1% Triton X-100 = 100%
Protocol: (§1) Membrane integrity was assessed using the LDH based in vitro toxicology kit obtained from Sigma-Aldrich. The assay was conducted following the manufacturer's protocol. HCT-116 and HT-29 cells were cultured in a 96-well plate at a density of 10,000 cells per well. After 24 hours of seeding, the cells were treated with IS at concentrations of 1.25 mM, 5 mM, and 10 mM. Following a 48-hour treatment period, the cells were centrifuged, and 100 μl of supernatant was collected into a fresh 96-well plate to measure the amount of LDH released into the media by necrotic cells. Subsequently, 100 μl of the dosing reagent was added and incubated for 30 minutes at 37° C. After incubation, 20 μl of […] stop solution was added. Absorbance was measured at 690 nm and 490 nm using a ClarioStar plate reader (BMG Labtech, Ortenberg, Germany). The background absorbance at 690 nm was subtracted from the 490 nm absorbance. For the positive control, 0.1% Triton X-100 was used and considered as maximum LDH release. Untreated cells served as the negative control. The membrane integrity of IS-exposed cells was compared to that of untreated cells. The following formula was used to calculate the LDH release from the cells: Experimental LDH release (OD490)×100/maximum LDH release (OD490).

[4] = tested on: HT-29 cells; assay: Membrane integrity by LDH assay; format: cell-based, human; conditions: 48 hours, 0.1% Triton X-100 = 100%
Protocol: as §1

[5] = tested on: HCT-116 cells; assay: Apoptosis assay, Annexin V-FITC/PI flow cytometry; format: cell-based, human; conditions: for apoptotic percentage: 48 hours, untreated 3%
Protocol: (§2) The apoptotic effect of IS was evaluated on HCT-116 and HT-29 cells using the propidium iodide (PI)/Annexin V-fluorescein isothiocyanate (FITC) dual staining kit (ab14085: Abcam, USA). Duplicate wells of cells were cultured at a density of 3×10^5 cells per well in 6-well plates. After 24 hours of seeding, the cells were treated with IS at concentrations of 1.25 mM, 5 mM, and 10 mM. Following a 48-hour treatment period, the cells were harvested using trypsin and washed twice with PBS. After the washing steps, the cells were resuspended in 1 ml of fresh media and counted at each concentration using a hematocytometer. From each concentration, 2×10^5 cells were taken and dissolved in 500 μl of binding buffer, 5 μl of PI, and 5 μl of Annexin V-FITC. The cells were then incubated in the dark at room temperature for 30 minutes. Subsequently, the cells were analyzed for apoptosis using flow cytometry (BD Biosciences, FACS Canto™ Flow Cytometer, Germany) at 488 nm. Untreated cells were used as controls for comparison.

[6] = tested on: HT-29 cells; assay: Apoptosis assay, Annexin V-FITC/PI flow cytometry; format: cell-based, human; conditions: for apoptotic percentage: 48 hours, untreated 3%
Protocol: as §2

[7] = tested on: HCT-116 cells; assay: Cell viability by MTT assay; format: cell-based, human; conditions: for viability at 10000 µM: Homo sapiens, HCT-116, 10 mM, untreated = 100%
Protocol: (§3) Human colon epithelial adenocarcinoma cell lines, HT-29 and HCT-116 (procured from ATCC), are commonly utilized for CRC research. HT-29 cells were cultured in McCoy 5A media (Gibco) supplemented with 10% heat-inactivated FBS (Gibco) and penicillin-streptomycin (Sigma-Aldrich: Merck KGaA, Germany). On the other hand, HCT-116 cells were cultured in Dulbecco's modified Eagle's medium-F12 nutrient mixture (DMEM-F12: Gibco) supplemented with 10% heat-inactivated FBS (Gibco) and penicillin-streptomycin (Sigma-Aldrich: Merck KGaA, Germany). The cells were incubated in a humidified incubator at 37° C. with 5% CO2.
(§4) To evaluate the impact of IS treatment, cell viability was assessed using Thiazolyl Blue Tetrazolium Bromide (MTT) dye. HT-29 and HCT-116 cells were seeded at a density of 3000 cells per well in a 96-well plate. After 24 hours of seeding, the cells were exposed to various concentrations of IS, including 0.018 mM, 0.037 mM, 0.075 mM, 0.15 mM. 0.31 mM, 0.62 mM. 1.25 mM, 2.5 mM, 5 mM, and 10 mM. Triplicate wells were treated with IS for three different incubation periods: 24 hours, 48 hours, and 72 hours. After the respective incubation periods. 20 μl of MTT dye (5 mg/ml) was added to each well and incubated for 3 hours. The yellow MTT dye is converted into purple formazan crystals by the mitochondrial succinate dehydrogenase enzyme, NAD (P) H. Following the incubation, 100 μl of dimethyl sulphoxide (DMSO) was added to dissolve the formazan crystals. Formazan crystal dissolve immediately after adding DMSO, so taken the reading just after adding the DMSO. The intensity of the purple color is directly proportional to cell viability. Absorbance was measured at 570 nm using a Multiskan Sky microplate spectrophotometer (Thermo Scientific). Non-treated cells served as controls and were considered 100% viable.

[8] = tested on: HT-29 cells; assay: Cell viability by MTT assay; format: cell-based, human; conditions: for viability at 10000 µM: Homo sapiens, HT-29, 10 mM, untreated = 100%
Protocol: as §3, §4

[9] = 10 mM, 48-hour treatment, stated for cells in general

## O=S(=O)(O)Oc1c[nH]c2ccccc12 [IS, Indoxyl Sulfate]
[1]
  cell morphology: rounded morphology, reduced cell numbers, and detachment from the culture substrate
[2]
  production of ROS: did not cause any production of ROS
[3]; HCT-116, 5 mM
  LDH release in the supernatant: 80%
[3]; HCT-116, 10 mM
  LDH release in the supernatant: 86%
[4]; HT-29, 5 mM
  LDH release in the supernatant: 82%
[4]; HT-29, 10 mM
  LDH release in the supernatant: 85%
[5]; [9]
  increase in cell apoptosis compared to the control: 10%
[5]; HCT-116, 5 mM
  apoptotic percentage: 9%
[5]; HCT-116, 10 mM
  apoptotic percentage: 13%
[6]; [9]
  increase in cell apoptosis compared to the control: 10%
[6]; HT-29, 5 mM
  apoptotic percentage: 8%
[6]; HT-29, 10 mM
  apoptotic percentage: 12%
[7]; 0.62 mM, cell line not given
  cell viability: cell viability unexpectedly increased
[7]; 24 hours
  viability at 10000 µM: 30%
[7]; 48 hours
  viability at 10000 µM: 7%
[7]; 72 hours
  viability at 10000 µM: 4%
[8]; 0.62 mM, cell line not given
  cell viability: cell viability unexpectedly increased
[8]; 24 hours
  viability at 10000 µM: 41%
[8]; 48 hours
  viability at 10000 µM: 30%
[8]; 72 hours
  viability at 10000 µM: 17%

Source: patent US20250195468A1, “METHODS AND COMPOSITIONS FOR TREATING COLORECTAL CANCER WITH INDOXYL SULFATE” (National Institute of Immunology, priority 2023, published 2025)
